Measured values reported in the supplement of paper PMC10307832.

What was measured:
Assay in all cases: relative viability (nuclei count vs DMSO), 5 days (fraction); higher = more cells survive
Docetaxel = compound: CC(=O)O[C@@]12CO[C@@H]1C[C@H](O)[C@@]1(C)C(=O)[C@H](O)C3=C(C)[C@@H](OC(=O)[C@H](O)[C@@H](NC(=O)OC(C)(C)C)c4ccccc4)C[C@@](O)([C@@H](OC(=O)c4ccccc4)[C@H]21)C3(C)C [Docetaxel]
How it was run: (§1)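 Following overnight incubation at 37 °C, lung cancer cell lines in 1536-well plates were pinned with five library-drug doses (not always all listed) in √10 steps on vehicle-anchored plates. The cells then spent 5 days without medium change before a combined fix, permeabilisation and Hoechst stain, 4× imaging and MetaXpress nuclear counts. Viability is the treated-to-vehicle ratio of nuclei, taken as the median across plates. Only plates with control CV below 25% and at least one doubling passed.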

Tivozanib = compound: COc1cc2nccc(Oc3ccc(NC(=O)Nc4cc(C)on4)c(Cl)c3)c2cc1OC [Tivozanib]
How it was run: as §1

[1] = compound: Cc1cnc(-c2cnc(NCCNc3ccc(C#N)cn3)nc2-c2ccc(Cl)cc2Cl)[nH]1
How it was run: as §1

JQ1 = compound: Cc1sc2c(c1C)C(c1ccc(Cl)cc1)=N[C@@H](CC(=O)OC(C)(C)C)c1nnc(C)n1-2 [JQ1]
How it was run: as §1

Cytarabine = compound: Nc1ccn([C@@H]2O[C@H](CO)[C@@H](O)[C@@H]2O)c(=O)n1 [Cytarabine]
How it was run: as §1

CPI-613 = compound: O=C(O)CCCCC(CCSCc1ccccc1)SCc1ccccc1 [CPI-613]
How it was run: as §1

Pimozide = compound: O=c1[nH]c2ccccc2n1C1CCN(CCCC(c2ccc(F)cc2)c2ccc(F)cc2)CC1 [Pimozide]
How it was run: as §1

Row | Cell Line | relative viability (Docetaxel; 0.0002 µM) | relative viability (Docetaxel; 0.000632 µM) | relative viability (Docetaxel; 0.002 µM) | relative viability (Docetaxel; 0.006325 µM) | relative viability (Docetaxel; 0.02 µM) | relative viability (Tivozanib; 0.005 µM) | relative viability (Tivozanib; 0.01581 µM) | relative viability (Tivozanib; 0.05 µM) | relative viability (Tivozanib; 0.1581 µM) | relative viability (Tivozanib; 0.5 µM) | relative viability ([1]; 0.08 µM) | relative viability ([1]; 0.253 µM) | relative viability ([1]; 0.8 µM) | relative viability ([1]; 2.53 µM) | relative viability (JQ1; 0.04 µM) | relative viability (JQ1; 0.1265 µM) | relative viability (JQ1; 0.4 µM) | relative viability (JQ1; 1.265 µM) | relative viability (JQ1; 4 µM) | relative viability (Cytarabine; 0.005 µM) | relative viability (Cytarabine; 0.01581 µM) | relative viability (Cytarabine; 0.05 µM) | relative viability (Cytarabine; 0.1581 µM) | relative viability (Cytarabine; 0.5 µM) | relative viability (CPI-613; 5 µM) | relative viability (CPI-613; 15.81 µM) | relative viability (CPI-613; 50 µM) | relative viability (CPI-613; 158.11 µM) | relative viability (CPI-613; 500 µM) | relative viability (Pimozide; 0.08 µM) | relative viability (Pimozide; 0.253 µM) | relative viability (Pimozide; 0.8 µM) | relative viability (Pimozide; 2.53 µM) | relative viability (Pimozide; 8 µM)
1 | NCI-H2228 | 0.749 | 0.341 | 0.2 | 0.199 | 0.144 | 0.897 | 0.866 | 0.933 | 0.965 | 0.989 | 1.03 | 0.887 | 1.01 | 0.864 | 0.927 | 0.857 | 0.876 | 0.462 | 0.406 | 0.5 | 0.432 | 0.428 | 0.163 | 0.141 | 0.915 | 0.931 | 0.893 | 0.744 | 0.0258 | 1.07 | 1.11 | 0.868 | 0.805 | 0.543
2 | NCI-H1975 | 0.916 | 0.702 | 0.344 | 0.213 | 0.168 | 0.842 | 0.922 | 0.991 | 0.852 | 0.786 | 0.859 | 0.888 | 0.813 | 0.647 | 0.953 | 0.643 | 0.782 | 0.597 | 0.53 | 1.07 | 1.08 | 0.987 | 0.546 | 0.35 | 0.919 | 0.901 | 0.984 | 0.87 | 0.075 | 0.916 | 0.941 | 0.92 | 0.966 | 0.775
3 | NCI-H1299 | 0.998 | 0.975 | 0.868 | 0.502 | 0.37 | 1.01 | 1.03 | 1.03 | 1.02 | 0.952 | 0.968 | 1.01 | 1 | 0.969 | 0.974 | 0.851 | 0.909 | 0.379 | 0.308 | 1.01 | 1.04 | 1.01 | 1.06 | 1.02 | 1 | 0.984 | 1 | 0.992 | 0.973 | 1.02 | 0.951 | 0.977 | 0.995 | 0.988
4 | NCI-H1648 | 0.861 | 0.925 | 0.494 | 0.269 | 0.179 | 0.838 | 0.918 | 1 | 0.886 | 0.716 | 1.11 | 0.801 | 0.951 | 0.76 | 0.89 | 0.753 | 0.434 | 0.294 | 0.184 | 0.69 | 0.734 | 0.813 | 0.443 | 0.611 | 0.818 | 0.768 | 1.11 | 0.393 | 0.577 | 1.01 | 0.641 | 0.822 | 0.8 | 0.972
5 | HCC-44 | 0.956 | 0.949 | 0.587 | 0.296 | 0.198 | 0.936 | 0.949 | 0.976 | 1.02 | 0.87 | 0.986 | 0.867 | 1.07 | 1.08 | 0.977 | 0.776 | 0.778 | 0.438 | 0.308 | 0.989 | 0.882 | 0.643 | 0.614 | 0.356 | 1.01 | 0.958 | 1.03 | 0.869 | 0.51 | 0.986 | 0.95 | 0.876 | 0.911 | 0.952
6 | LCLC-97TM1 | 0.88 | 0.617 | 0.3 | 0.104 | 0.0757 | 0.953 | 1.04 | 1.05 | 0.927 | 0.919 | 0.977 | 0.846 | 0.907 | 0.908 | 1 | 0.759 | 0.803 | 0.491 | 0.194 | 0.99 | 0.787 | 0.296 | 0.143 | 0.129 | 0.964 | 0.993 | 0.985 | 0.97 | 0.629 | 0.984 | 0.906 | 0.916 | 0.953 | 0.653
7 | NCI-H1623 | 0.889 | 0.957 | 0.601 | 0.424 | 0.264 | 1.05 | 0.986 | 1.03 | 0.714 | 0.986 | 1.06 | 0.957 | 0.921 | 0.947 | 0.961 | 0.82 | 0.908 | 0.557 | 0.54 | 0.828 | 0.592 | 0.41 | 0.25 | 0.216 | 1.07 | 0.99 | 1.13 | 0.743 | 0.867 | 0.675 | 0.916 | 0.902 | 0.939 | 0.932
8 | NCI-H727 | 0.772 | 0.892 | 0.726 | 0.548 | 0.413 | 0.8 | 0.85 | 1.01 | 0.702 | 0.917 | 0.952 | 0.864 | 0.943 | 0.86 | 0.923 | 0.988 | 0.413 | 0.465 | 0.409 | 0.785 | 0.766 | 0.788 | 0.402 | 0.382 | 0.831 | 0.825 | 0.916 | 0.654 | 0.309 | 0.849 | 0.864 | 0.998 | 0.879 | 0.93
9 | PC-14 | 0.941 | 0.742 | 0.209 | 0.081 | 0.0432 | 0.924 | 1.05 | 1.06 | 1.03 | 0.927 | 1.07 | 0.861 | 1.04 | 0.867 | 0.971 | 0.684 | 0.652 | 0.333 | 0.22 | 0.881 | 0.922 | 0.565 | 0.174 | 0.127 | 0.956 | 0.9 | 0.941 | 0.685 | 0.595 | – | 0.965 | 0.851 | 0.915 | 0.987
